Source: US8133847B2, “Pyrido[2,3-B]pyrazine derivatives useful as herbicidal compounds” (Syngenta Limited, priority 2006, dated 2012)

How the values were obtained:
Test in all cases: Example B2 herbicidal action, post-emergence, pots in glasshouse
Format in all cases: in vivo
[1] = test system: Solanum nigrum (SOLNI); conditions: Application post-emergence, evaluated after 13 days
Description: (§1) Seeds of a variety of test species were sown in standard soil in pots. After 8 days cultivation (post-emergence) under controlled conditions in a glasshouse (at 24/16° C., day/night; 14 hours light; 65% humidity), the plants were sprayed with an aqueous spray solution derived from the formulation of the technical active ingredient in acetone/water (50:50) solution containing 0.5% Tween 20 (polyoxyethylene sorbitan monolaurate, CAS RN 9005-64-5). The test plants were then grown in a glasshouse under controlled conditions in a glasshouse (at 24/16° C., day/night; 14 hours light; 65% humidity) and watered twice daily. After 13 days, the test was evaluated (100=total damage to plant; 0=no damage to plant).

[2] = test system: Amaranthus retroflexus (AMARE); conditions: Application post-emergence, evaluated after 13 days (100=total damage to plant; 0=no damage to plant)
Description: as §1

[3] = test system: Setaria faberi (SETFA); conditions: Application post-emergence, evaluated after 13 days (100=total damage to plant; 0=no damage to plant)
Description: as §1

[4] = test system: Echinochloa crusgalli (ECHCG); conditions: Application post-emergence, evaluated after 13 days (100=total damage to plant; 0=no damage to plant)
Description: as §1

[5] = test system: Ipomea hederaceae (IPOHE); conditions: Application post-emergence, evaluated after 13 days (100=total damage to plant; 0=no damage to plant)
Description: as §1

Compound	damage to plant, Solanum nigrum (SOLNI) [1]	damage to plant, Amaranthus retroflexus (AMARE) [2]	damage to plant, Setaria faberi (SETFA) [3]	damage to plant, Echinochloa crusgalli (ECHCG) [4]	damage to plant, Ipomea hederaceae (IPOHE) [5]
Cc1ccc(C)c(-c2c(OC(=O)C(C)(C)C)c3nccnc3n(C)c2=O)c1 [Compound C134]	10	9	2	0	6
CCn1c(=O)c(-c2cc(C)ccc2C)c(OC(=O)C(C)(C)C)c2nccnc21 [Compound C135]	10	8	0	2	0
Cn1c(=O)c(-c2c(Cl)cc(OC(F)(F)F)cc2Cl)c(OC(=O)C(C)(C)C)c2nccnc21 [Compound C138]	8	8	4	2	8
CCn1c(=O)c(-c2c(Cl)cc(OC(F)(F)F)cc2Cl)c(OC(=O)C(C)(C)C)c2nccnc21 [Compound C139]	10	10	10	10	10
Cn1c(=O)c(-c2ccc(C(F)(F)F)cc2[N+](=O)[O-])c(OC(=O)C(C)(C)C)c2nccnc21 [Compound C140]	9	8	0	3	2
CC(C)C(=O)Oc1c(-c2cc(F)ccc2Cl)c(=O)n(C)c2nccnc12 [Compound C142]	10	10	7	8	9
Cn1c(=O)c(-c2cc(F)ccc2Cl)c(OC(=O)C(C)(C)C)c2nccnc21 [Compound C143]	10	10	8	7	9
CC(C)C(=O)Oc1c(-c2c(F)ccc(Br)c2Cl)c(=O)n(C)c2nccnc12 [Compound C144]	10	10	2	4	9
Cn1c(=O)c(-c2c(F)ccc(Br)c2Cl)c(OC(=O)C(C)(C)C)c2nccnc21 [Compound C145]	9	7	0	1	6
Cn1c(=O)c(-c2ccccc2Br)c(OC(=O)C(C)(C)C)c2nccnc21 [Compound C146]	8	9	6	5	7
CCn1c(=O)c(-c2ccc(C(F)(F)F)cc2Br)c(OC(=O)C(C)(C)C)c2nccnc21 [Compound C147]	4	2	0	0	2
CC(C)C(=O)Oc1c(-c2cc(F)c(Cl)cc2Cl)c(=O)n(C)c2nccnc12 [Compound C148]	6	9	4	6	7
Cn1c(=O)c(-c2cc(F)c(Cl)cc2Cl)c(OC(=O)C(C)(C)C)c2nccnc21 [Compound C149]	7	9	3	3	5
CCn1c(=O)c(-c2cc(F)ccc2Cl)c(OC(=O)C(C)C)c2nccnc21 [Compound C150]	10	10	6	3	9
CCn1c(=O)c(-c2cc(F)ccc2Cl)c(OC(=O)C(C)(C)C)c2nccnc21 [Compound C151]	6	7	0	0	4
CCn1c(=O)c(-c2cc(F)c(Cl)cc2Cl)c(OC(=O)C(C)C)c2nccnc21 [Compound C152]	9	10	2	4	6
CCn1c(=O)c(-c2cc(F)c(Cl)cc2Cl)c(OC(=O)C(C)(C)C)c2nccnc21 [Compound C153]	8	9	1	1	5
CCn1c(=O)c(-c2c(F)ccc(Br)c2Cl)c(OC(=O)C(C)C)c2nccnc21 [Compound C154]	10	10	0	3	9
CCn1c(=O)c(-c2c(F)ccc(Br)c2Cl)c(OC(=O)C(C)(C)C)c2nccnc21 [Compound C155]	10	10	0	3	9
COc1ccc(OC(F)(F)F)cc1-c1c(OC(=O)C(C)C)c2nccnc2n(C)c1=O [Compound C159]	8	9	7	9	2
CCn1c(=O)c(-c2cc(OC(F)(F)F)ccc2OC)c(OC(=O)C(C)C)c2nccnc21 [Compound C160]	9	10	6	8	7
Cn1c(=O)c(-c2cc(F)c(F)cc2Cl)c(OC(=O)C(C)(C)C)c2nccnc21 [Compound C162]	10	9	7	8	7
Cn1c(=O)c(-c2c(F)ccc(Cl)c2Cl)c(OC(=O)C(C)(C)C)c2nccnc21 [Compound C163]	9	6	0	1	9
CC(C)C(=O)Oc1c(-c2ccccc2OC(F)F)c(=O)n(C)c2nccnc12 [Compound C164]	8	9	4	3	8
CCn1c(=O)c(-c2ccccc2OC(F)F)c(OC(=O)C(C)C)c2nccnc21 [Compound C165]	10	9	2	1	7
